The subject of one assay is Helix pomatia. Description: Inhibition of Helix pomatia beta-mannosidase assessed as residual hydrolytic activity up to 2 mM after 10 to 30 mins by spectrophotometric analysis.
The test system of another assay is Aspergillus niger. Description: Inhibition of Aspergillus niger amyloglucosidase assessed as residual hydrolytic activity up to 2 mM after 10 to 30 mins by spectrophotometric analysis.
In assay [1] the test system is Saccharomyces cerevisiae. Put plainly: Inhibition of yeast alpha-glucosidase assessed as residual hydrolytic activity up to 2 mM after 10 to 30 mins by spectrophotometric analysis.
In assay [2] the target is Alpha-galactosidase (Coffea arabica) (UniProt Q42656). Put plainly: Inhibition of green coffee alpha-galactosidase assessed as residual hydrolytic activity up to 2 mM after 10 to 30 mins by spectrophotometric analysis.
For assay [3], the system named is Saccharomyces cerevisiae. Put plainly: Inhibition of yeast isomaltase assessed as residual hydrolytic activity up to 2 mM after 10 to 30 mins by spectrophotometric analysis.
Assay [4] addresses Beta-galactosidase (Escherichia coli) (UniProt Q8VNN2). Description: Inhibition of Escherichia coli beta-galactosidase assessed as residual hydrolytic activity up to 2 mM after 10 to 30 mins by spectrophotometric analysis.
The target of another assay is T1, Alpha-mannosidase (Canavalia ensiformis, UniProt C0HJB3).
T1 sequence (C0HJB3 whole entry): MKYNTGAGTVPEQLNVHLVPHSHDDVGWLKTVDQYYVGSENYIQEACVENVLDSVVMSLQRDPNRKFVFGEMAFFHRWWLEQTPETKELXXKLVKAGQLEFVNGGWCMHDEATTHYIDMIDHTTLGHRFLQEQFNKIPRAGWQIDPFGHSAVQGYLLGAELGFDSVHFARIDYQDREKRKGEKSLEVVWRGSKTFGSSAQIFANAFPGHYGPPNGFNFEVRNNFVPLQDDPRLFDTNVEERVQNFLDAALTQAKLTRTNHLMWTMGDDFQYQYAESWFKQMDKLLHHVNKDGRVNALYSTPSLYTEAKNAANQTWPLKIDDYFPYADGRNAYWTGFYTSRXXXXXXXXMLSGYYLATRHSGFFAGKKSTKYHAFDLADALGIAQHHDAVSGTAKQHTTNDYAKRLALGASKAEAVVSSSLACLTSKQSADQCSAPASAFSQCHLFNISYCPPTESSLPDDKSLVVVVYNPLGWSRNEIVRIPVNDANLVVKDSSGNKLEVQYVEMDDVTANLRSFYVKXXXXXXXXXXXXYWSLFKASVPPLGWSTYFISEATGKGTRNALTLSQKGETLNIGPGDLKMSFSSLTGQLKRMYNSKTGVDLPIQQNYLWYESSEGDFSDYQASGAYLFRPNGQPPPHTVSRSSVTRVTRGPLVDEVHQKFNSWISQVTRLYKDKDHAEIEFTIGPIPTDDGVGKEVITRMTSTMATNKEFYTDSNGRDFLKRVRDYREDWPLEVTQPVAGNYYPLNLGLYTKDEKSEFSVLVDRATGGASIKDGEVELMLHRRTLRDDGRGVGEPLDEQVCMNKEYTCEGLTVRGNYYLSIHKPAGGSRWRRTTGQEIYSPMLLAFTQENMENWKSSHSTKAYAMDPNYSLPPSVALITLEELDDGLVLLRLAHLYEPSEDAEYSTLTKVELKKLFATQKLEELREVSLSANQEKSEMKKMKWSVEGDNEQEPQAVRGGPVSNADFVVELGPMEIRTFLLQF
Put plainly: Inhibition of jack bean Lysosomal alpha-mannosidase assessed as residual hydrolytic activity after 10 to 30 mins by spectrophotometric analysis.

Assay [5] can be described thus: Inhibition of almond beta-glucosidase assessed as residual hydrolytic activity after 10 to 30 mins by spectrophotometric analysis. Set-up: species or system Prunus dulcis.
Assay [6] is described as follows: Inhibition of bovine liver beta-glucosidase assessed as residual hydrolytic activity after 10 to 30 mins by spectrophotometric analysis. Set-up: species or system Bos taurus.
Assay [7] in a line: Inhibition of Helix pomatia beta-mannosidase assessed as residual hydrolytic activity after 10 to 30 mins by spectrophotometric analysis. Particulars: read-out: Ki.

Calls of active or inactive are those of the source. The rule behind the calls is not given here.

Chain of Beta-galactosidase (Escherichia coli) (Q8VNN2 whole entry, looked up): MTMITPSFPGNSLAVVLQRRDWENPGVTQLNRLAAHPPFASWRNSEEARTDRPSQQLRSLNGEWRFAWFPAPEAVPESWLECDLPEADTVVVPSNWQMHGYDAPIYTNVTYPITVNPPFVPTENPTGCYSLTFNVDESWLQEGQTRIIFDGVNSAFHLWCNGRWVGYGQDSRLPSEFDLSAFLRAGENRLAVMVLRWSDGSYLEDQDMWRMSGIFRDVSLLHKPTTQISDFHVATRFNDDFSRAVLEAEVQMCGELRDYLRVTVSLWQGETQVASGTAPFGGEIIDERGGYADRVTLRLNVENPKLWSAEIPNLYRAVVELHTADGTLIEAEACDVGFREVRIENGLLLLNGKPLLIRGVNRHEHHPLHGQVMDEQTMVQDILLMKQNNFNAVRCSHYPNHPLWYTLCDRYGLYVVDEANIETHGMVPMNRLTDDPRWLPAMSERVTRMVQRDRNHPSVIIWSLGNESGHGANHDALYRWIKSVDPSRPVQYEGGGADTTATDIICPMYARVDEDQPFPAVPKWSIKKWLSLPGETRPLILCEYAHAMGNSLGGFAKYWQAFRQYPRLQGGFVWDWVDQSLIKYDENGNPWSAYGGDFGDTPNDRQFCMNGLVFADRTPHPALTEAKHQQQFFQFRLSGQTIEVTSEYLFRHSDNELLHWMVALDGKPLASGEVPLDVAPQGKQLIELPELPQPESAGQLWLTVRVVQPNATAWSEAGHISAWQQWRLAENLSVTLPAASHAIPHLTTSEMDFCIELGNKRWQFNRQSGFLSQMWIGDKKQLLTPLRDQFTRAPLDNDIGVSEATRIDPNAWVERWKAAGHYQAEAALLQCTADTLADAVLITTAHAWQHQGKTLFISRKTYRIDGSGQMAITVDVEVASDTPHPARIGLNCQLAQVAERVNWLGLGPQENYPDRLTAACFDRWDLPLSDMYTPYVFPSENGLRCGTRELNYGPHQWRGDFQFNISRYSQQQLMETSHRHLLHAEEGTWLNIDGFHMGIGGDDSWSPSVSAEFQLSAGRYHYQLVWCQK
Chain of Alpha-galactosidase (Coffea arabica) (Q42656 16-378 limits assumed): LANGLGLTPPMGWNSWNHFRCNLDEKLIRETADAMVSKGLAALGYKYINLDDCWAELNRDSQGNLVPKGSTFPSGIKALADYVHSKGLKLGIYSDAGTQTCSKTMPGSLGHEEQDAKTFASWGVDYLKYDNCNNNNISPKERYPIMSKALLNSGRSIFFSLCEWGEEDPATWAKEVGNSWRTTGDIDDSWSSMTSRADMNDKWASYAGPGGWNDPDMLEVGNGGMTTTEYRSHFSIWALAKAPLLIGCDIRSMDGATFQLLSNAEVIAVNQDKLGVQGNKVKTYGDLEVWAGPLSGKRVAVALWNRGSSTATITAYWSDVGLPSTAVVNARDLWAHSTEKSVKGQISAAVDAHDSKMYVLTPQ

Turning to `O=C1OC[C@@H]2[C@@H](O)[C@H](O)[C@H](O)[C@@H](NCCCCCCn3cc(COC[C@H]4O[C@@H]5O[C@H]6[C@H](O)[C@@H](OCc7cn(CCCCCCN[C@@H]8[C@@H](O)[C@@H](O)[C@H](O)[C@H]9COC(=O)N98)nn7)[C@@H](O[C@H]7[C@H](O)[C@@H](OCc8cn(CCCCCCN[C@@H]9[C@@H](O)[C@@H](O)[C@H](O)[C@H]%10COC(=O)N%109)nn8)[C@@H](O[C@H]8[C@H](O)[C@@H](OCc9cn(CCCCCCN[C@@H]%10[C@@H](O)[C@@H](O)[C@H](O)[C@H]%11COC(=O)N%11%10)nn9)[C@@H](O[C@H]9[C@H](O)[C@@H](OCc%10cn(CCCCCCN[C@@H]%11[C@@H](O)[C@@H](O)[C@H](O)[C@H]%12COC(=O)N%12%11)nn%10)[C@@H](O[C@H]%10[C@H](O)[C@@H](OCc%11cn(CCCCCCN[C@@H]%12[C@@H](O)[C@@H](O)[C@H](O)[C@H]%13COC(=O)N%13%12)nn%11)[C@@H](O[C@H]%11[C@H](O)[C@@H](OCc%12cn(CCCCCCN[C@@H]%13[C@@H](O)[C@@H](O)[C@H](O)[C@H]%14COC(=O)N%14%13)nn%12)[C@@H](O[C@H]4[C@H](O)[C@H]5OCc4cn(CCCCCCN[C@@H]5[C@@H](O)[C@@H](O)[C@H](O)[C@H]%12COC(=O)N%125)nn4)O[C@@H]%11COCc4cn(CCCCCCN[C@@H]5[C@@H](O)[C@@H](O)[C@H](O)[C@H]%11COC(=O)N%115)nn4)O[C@@H]%10COCc4cn(CCCCCCN[C@@H]5[C@@H](O)[C@@H](O)[C@H](O)[C@H]%10COC(=O)N%105)nn4)O[C@@H]9COCc4cn(CCCCCCN[C@@H]5[C@@H](O)[C@@H](O)[C@H](O)[C@H]9COC(=O)N95)nn4)O[C@@H]8COCc4cn(CCCCCCN[C@@H]5[C@@H](O)[C@@H](O)[C@H](O)[C@H]8COC(=O)N85)nn4)O[C@@H]7COCc4cn(CCCCCCN[C@@H]5[C@@H](O)[C@@H](O)[C@H](O)[C@H]7COC(=O)N75)nn4)O[C@@H]6COCc4cn(CCCCCCN[C@@H]5[C@@H](O)[C@@H](O)[C@H](O)[C@H]6COC(=O)N65)nn4)nn3)N12`, the outcome in the assay with Helix pomatia was Active. For the same compound, the inhibition entry (with Aspergillus niger; in the assay on Saccharomyces cerevisiae [1]; in assay [2]; in the assay on Saccharomyces cerevisiae [3]; in assay [4]) was “Active” each time.

For orientation: Ki means the dissociation constant of the complex between target and ligand, obtained from inhibition or displacement. On to `N[C@@H]1[C@@H](O)[C@@H](O)[C@H](O)[C@H]2COC(=O)N12`, for which the inhibition constant Ki at Alpha-mannosidase is 7 µM; in assay [5], 20 to 200 µM; in [6] it was 20 to 200 µM; in assay [7] it was 20 to 200 µM.

Values taken from ChEMBL document CHEMBL4396870, “Pharmacological Chaperones for the Treatment of α-Mannosidosis” (J Med Chem, 2019).
